According to article PMC10688625, “Evaluation of arsenic metabolism and tight junction injury after exposure to arsenite and monomethylarsonous acid using a rat in vitro blood–Brain barrier model” (PLOS ONE, 2023):
Like-named read-outs stand apart in the source and are kept apart here.

Key:
ZO-1 [1] = format: cell-based, rat; settings: 2 μM
rat in vitro-BBB model [2] = format: cell-based
ZO-1 [3] = format: cell-based, rat
rat in vitro-BBB model [4] = settings: 24 h
rat in vitro-BBB model [5] = test system: rat in vitro-BBB model
claudin-5 [6] = format: cell-based, rat
claudin-5 [7] = format: cell-based, rat; settings: 2 μM
[8] = mouse, in vivo; cited from earlier work
mouse brain slices = settings: cited from earlier work

## C[As](O)O [MMA^III, monomethylarsonous acid]
ZO-1 [1]; 6 h
  % ZO-1 Area for control: 55.0 ± 11.2%
ZO-1 [1]; 24 h
  % ZO-1 Area for control: 59.1 ± 9.76%
Rat in vitro-BBB model [2]; 0.1 μM, 6 h
  %TEER: 109.7 ± 16.6%
Rat in vitro-BBB model [2]; 0.1 μM, 24 h
  %TEER: 87.9 ± 13.0%
Rat in vitro-BBB model [2]; 1 μM, 6 h
  %TEER: 61.6 ± 6.19%
Rat in vitro-BBB model [2]; 1 μM, 24 h
  %TEER: 45.6 ± 2.09%
Rat in vitro-BBB model [2]; 2 μM, 6 h
  %TEER: 9.17 ± 4.62%
Rat in vitro-BBB model [2]; 2 μM, 24 h
  %TEER: 3.31 ± 0.67%
ZO-1 [3]; 0.1 μM, 6 h
  ZO-1/β-actin: 48.7 ± 25.7
  ZO-1/β-actin ratio for control: 0.60 ± 0.25
ZO-1 [3]; 0.1 μM, 24 h
  ZO-1/β-actin: 41.0 ± 24.5
  ZO-1/β-actin ratio for control: 0.54 ± 0.33
ZO-1 [3]; 1 μM, 6 h
  ZO-1/β-actin: 44.7 ± 26.2
  ZO-1/β-actin ratio for control: 0.55 ± 0.26
ZO-1 [3]; 1 μM, 24 h
  ZO-1/β-actin: 71.6 ± 15.1
  ZO-1/β-actin ratio for control: 0.93 ± 0.19
ZO-1 [3]; 2 μM, 6 h
  ZO-1/β-actin: 16.6 ± 5.59
  ZO-1/β-actin ratio for control: 0.23 ± 0.15
ZO-1 [3]; 2 μM, 24 h
  ZO-1/β-actin: 28.7 ± 13.3
  ZO-1/β-actin ratio for control: 0.37 ± 0.15
Rat in vitro-BBB model [4]; 0.1 μM
  Papp of sodium fluorescein: 1.90 ± 0.17 x 10-6 cm2/s
Rat in vitro-BBB model [4]; 1 μM
  Papp of sodium fluorescein: 2.78 ± 0.28 x 10-6 cm2/s
Rat in vitro-BBB model [4]; 2 μM
  Na-F values elevated compared to the control group: approximately 16 fold
  Papp of sodium fluorescein: 34.0 ± 4.97 x 10-6 cm2/s
Rat in vitro-BBB model [5]
  detection of dimethylarsinous acid as metabolite: no dimethylarsinous acid was detected
  fraction oxidized or methylated (converted, detoxified) within the BBB: Approximately 65%
Rat in vitro-BBB model [5]; 0–6 h
  Penetration rate (%) DMA^V: 4.03±0.52%
  Penetration rate (%) MMA^III: 7.63±0.79%
  Penetration rate (%) MMA^V: 8.27±1.55%
  percentage of arsenic in total penetration rate: DMA^V: (28.5) %
Rat in vitro-BBB model [5]; 0–24 h
  Penetration rate (%) DMA^V: 9.01±0.14%
  Penetration rate (%) MMA^III: 13.7±5.09%
  Penetration rate (%) MMA^V: 27.9±3.59%
  percentage of arsenic in total penetration rate: DMA^V: (21.4) %
claudin-5 [6]; 0.1 μM, 6 h
  Claudin-5/β-actin: 30.5 ± 3.26
  Claudin-5/β-actin ratio for control: 0.45 ± 0.19
claudin-5 [6]; 0.1 μM, 24 h
  Claudin-5/β-actin: 34.1 ± 25.6
  Claudin-5/β-actin ratio for control: 0.37 ± 0.23
claudin-5 [6]; 1 μM, 6 h
  Claudin-5/β-actin: 25.8 ± 16.7
  Claudin-5/β-actin ratio for control: 0.35 ± 0.16
claudin-5 [6]; 1 μM, 24 h
  Claudin-5/β-actin: 14.5 ± 4.52
  Claudin-5/β-actin ratio for control: 0.16 ± 0.06
claudin-5 [6]; 2 μM, 6 h
  Claudin-5/β-actin: 9.38 ± 5.97
  Claudin-5/β-actin ratio for control: 0.16 ± 0.15
claudin-5 [6]; 2 μM, 24 h
  Claudin-5/β-actin: 4.68 ± 1.30
  Claudin-5/β-actin ratio for control: 0.05 ± 0.02
claudin-5 [7]; 6 h
  % Claudin-5 Area for control: 46.6 ± 12.6%
claudin-5 [7]; 24 h
  % Claudin-5 Area for control: 37.2 ± 11.4%

## O=[As][O-].[Na+] [sodium arsenite]
[8]
  DMA^V in brain tissue: presence of DMA^V
Mouse brain slices
  DMA^V formation in mouse brain slices: DMA^V was detected
